Measured values taken from publication PMC9841521, “Subnanomolar Affinity and Selective Antagonism at α7 Nicotinic Receptor by Combined Modifications of 2-Triethylammonium Ethyl Ether of 4-Stilbenol (MG624)” (Journal of Medicinal Chemistry, 2022).
“Also recorded” adds a separate entry of the source. Where two headings read alike, the source gives them in different places.

How the values were obtained:
[1] = molecular target: T1, human α9α10-nAChR (Homo sapiens, UniProt Q9GZZ6+Q9UGM1); test: Two-electrode voltage clamp, compound applied alone at 100 μM: intrinsic activity, rebound current, residual ACh response; format: cell-based; conditions: for partial agonism of α9α10-nAChRs, efficacy (AUC) / partial agonism of α9α10-nAChRs, efficacy (peak current): 100 μM pulse, alone, vs 1 mM ACh, range over the named compounds; for recovery of rebound current at α9α10-nAChR (in words): 1 min after test compound; for recovery of rebound current at α9α10-nAChR (in words) / residual ACh-induced current at α9α10-nAChR (in words): Figure 4; for residual ACh-induced current at α9α10-nAChR (in words): final ACh control 1 min after test compound
T1 construct: expressed in transfected cells; host or cells: Xenopus laevis oocytes (cRNA injection, α9:α10 9:1)

[2] = molecular target: T2, human α3β4-nAChR subtype (Homo sapiens, UniProt P30926+P32297); test: Competition binding with [3H]epibatidine, membranes of SH-EP1 cells stably transfected with α3 and β4; conditions: human α3β4 expressed in SH-EP1 cells; confidence interval in parentheses; read-out: α3β4-nAChR [3H]-Epi Ki
T2 construct: expressed in transfected cells

[3] = molecular target: T3, human α7-nAChR (Homo sapiens, UniProt P36544); test: Two-electrode voltage clamp, antagonism of currents activated by 1 mM ACh, test compound coapplied, X. laevis oocytes; format: cell-based; conditions: for IC50: 95% confidence interval in parentheses, NA = not inhibited even at 100 μM
[4] = molecular target: T1, human α9α10-nAChR; test: Two-electrode voltage clamp, antagonism of currents activated by 1 mM ACh, test compound coapplied, X. laevis oocytes (α9:α10 cRNA 9:1); format: cell-based; conditions: coapplied with 1 mM ACh; for inhibition of ACh-induced α9α10-nAChR function (in words) / IC50: up to 100 μM; for IC50: 95% confidence interval in parentheses
[5] = molecular target: T3, human α7-nAChR; test: Two-electrode voltage clamp, compound applied alone at 100 μM: intrinsic activity, rebound current, residual ACh response; format: cell-based; parameters: expressed in transfected cells; host or cells: SH-SY5Y neuroblastoma cells (transient); conditions: 100 μM pulse, vs 1 mM ACh, range over the named compounds
[6] = molecular target: T4, human α4β2-nAChR subtype (Homo sapiens, UniProt P17787+P43681); test: Competition binding with [3H]epibatidine, membranes of HEK 293 cells stably transfected with α4 and β2; conditions: human α4β2 expressed in HEK 293 cells; confidence interval in parentheses; read-out: α4β2-nAChR [3H]-Epi Ki
T4 construct: expressed in transfected cells; gift of Dr. Jon Lindstrom

SMILES	partial agonism of α9α10-nAChRs, efficacy (AUC) [1]	partial agonism of α9α10-nAChRs, efficacy (peak current) [1]	block of subsequent ACh-induced function at α9α10-nAChRs (in words) ([1]; final 1 mM ACh 1 min after 100 μM compound, Figure 3B)	Ki [2] [µM]	inhibition of ACh-induced α7-nAChR function (in words) ([3]; coapplied with 1 mM ACh, up to 100 μM)	alpha7 nAChR IC50 (AUC) ([3]; supplementary CSV)	alpha7 nAChR IC50 (peak current) ([3]; supplementary CSV)	inhibition of ACh-induced α9α10-nAChR function (in words) [4]	IC50 [4] [µM]	recovery of rebound current at α9α10-nAChR (in words) [1]	residual ACh-induced current at α9α10-nAChR (in words) [1]	IC50 ([3]; coapplied with 1 mM ACh, up to 100 μM, read-out: α7 IC50 (AUC)) [µM]	IC50 ([3]; coapplied with 1 mM ACh, up to 100 μM, read-out: α7 IC50 (peak current)) [µM]	partial agonism at α7-nAChR, efficacy compared to ACh control (peak current) [5]	inhibition of ACh-induced function at the α9α10-nAChR ([4]; maximal inhibition) [%]	Ki [6] [µM]
CC[N+](CC)(CC)CCOc1ccc(CCc2ccccc2)cc1.[I-] [Compound 6, N,N,N-Triethyl-2-(4-phenethylphenoxy)ethan-1-aminium Iodide]	0.2–3 % of ACh control	5–55 % of ACh control	significantly block	1.25	no inhibition; also recorded: no effect; also recorded: devoid of α7-nAChR antagonism	not active	not active	essentially full inhibition	9.12							
CC[N+](CC)(CC)CCOc1ccc(-c2nc3ccccc3o2)cc1.[I-] [Compound 28, 2-(4-(Benzo[d]oxazol-2-yl)phenoxy)-N,N,N-triethylethan-1-aminium Iodide]	0.2–3 % of ACh control	5–55 % of ACh control		0.653					72.4	almost complete recovery	highest residual ACh-induced currents	2.25	1.78	15–50%		
C[N+]1(C)CC[C@@H](Oc2ccc(-c3ccc4[nH]ccc4c3)cc2)C1.[I-] [Compound 33, (R)-3-(4-(1H-Indol-5-yl)phenoxy)-1,1-dimethylpyrrolidin-1-ium Iodide]	0.2–3 % of ACh control	5–55 % of ACh control		0.365				complete or nearly complete inhibition	15.9	almost complete recovery	highest residual ACh-induced currents				100	5.1
